In patent US7138361B2, “Herbicidal heterocycles” (E. I. du Pont de Nemours and Company, priority 2000, dated 2006):

Tests used:
Assay in all cases: Test C preemergence
Format in all cases: in vivo
Nightshade = conditions: scale 0 to 100, 0 no effect, 100 complete control
Sunflower [1] = conditions: Rate 125 g/ha; scale 0 to 100, 0 no effect, 100 complete control
[2] = test system: Surinam grass (Brachiaria decumbens); conditions: for Plant response rating, Surinam grass: scale 0 to 100, 0 no effect, 100 complete control; for Plant response rating (0 to 100), Surinam grass: preemergence, visual evaluation after 12 to 14 days
Outline: (§1)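 Herbicidal effect is a visual 0–100 score (100 = complete control) assigned versus untreated plants, 12 to 14 days after spraying in the greenhouse. Test compounds were applied in a non-phytotoxic, surfactant-containing solvent.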

[3] = test system: bermudagrass (Cynodon dactylon); conditions: for Plant response rating, Bermudagrass: scale 0 to 100, 0 no effect, 100 complete control; for Plant response rating (0 to 100 where 0 is no effect and 100 is complete control), Bermudagrass: preemergence, visual evaluation after 12 to 14 days
Outline: as §1

[4] = test system: cocklebur (Xanthium strumarium); conditions: for Plant response rating, Cocklebur: scale 0 to 100, 0 no effect, 100 complete control; for Plant response rating (0 to 100), Cocklebur: preemergence, visual evaluation after 12 to 14 days
Outline: as §1

[5] = test system: common ragweed (Ambrosia elatior); conditions: for Plant response rating, Ragweed, Common: scale 0 to 100, 0 no effect, 100 complete control
Outline: as §1

corn (Zea mays) = conditions: for Plant response rating, Corn: scale 0 to 100, 0 no effect, 100 complete control; for Plant response rating (0 to 100), Corn: preemergence, visual evaluation after 12 to 14 days
Outline: as §1

[6] = test system: crabgrass (Digitaria sanguinalis); conditions: for Plant response rating, Crabgrass: scale 0 to 100, 0 no effect, 100 complete control; for Plant response rating (0 to 100), Crabgrass: preemergence, visual evaluation after 12 to 14 days
Outline: as §1

[7] = test system: giant foxtail (Setaria faberii); conditions: for Plant response rating, Foxtail, Giant: scale 0 to 100, 0 no effect, 100 complete control; for Plant response rating (0 to 100), Foxtail, Giant: preemergence, visual evaluation after 12 to 14 days
Outline: as §1

[8] = test system: goosegrass (Eleusine indica); conditions: for Plant response rating, Goosegrass: scale 0 to 100, 0 no effect, 100 complete control; for Plant response rating (0 to 100), Goosegrass: preemergence, visual evaluation after 12 to 14 days
Outline: as §1

[9] = test system: johnsongrass (Sorghum halepense); conditions: for Plant response rating, Johnsongrass: scale 0 to 100, 0 no effect, 100 complete control; for Plant response rating (0 to 100), Johnsongrass: preemergence, visual evaluation after 12 to 14 days
Outline: as §1

kochia (Kochia scoparia) = conditions: for Plant response rating, Kochia: scale 0 to 100, 0 no effect, 100 complete control; for Plant response rating (0 to 100), Kochia: preemergence, visual evaluation after 12 to 14 days
Outline: as §1

[10] = test system: lambsquarters (Chenopodium album); conditions: for Plant response rating, Lambsquarters: scale 0 to 100, 0 no effect, 100 complete control
Outline: as §1

[11] = test system: morningglory (Ipomoea hederacea); conditions: for Plant response rating, Morningglory: scale 0 to 100, 0 no effect, 100 complete control
Outline: as §1

[12] = test system: pigweed (Amaranthus retroflexus); conditions: for Plant response rating, Pigweed: scale 0 to 100, 0 no effect, 100 complete control
Outline: as §1

soybean (Glycine max) = conditions: for Plant response rating, Soybean: scale 0 to 100, 0 no effect, 100 complete control
Outline: as §1

[13] = test system: velvetleaf (Abutilon theophrasti); conditions: for Plant response rating, Velvetleaf: scale 0 to 100, 0 no effect, 100 complete control
Outline: as §1

[14] = test system: woolly cupgrass (Eriochloa villosa); conditions: for Plant response rating, Cupgrass, Woolly: scale 0 to 100, 0 no effect, 100 complete control; for Plant response rating (0 to 100), Cupgrass, Woolly: preemergence, visual evaluation after 12 to 14 days
Outline: as §1

[15] = test system: yellow nutsedge (Cyperus esculentus); conditions: for Plant response rating, Nutsedge: scale 0 to 100, 0 no effect, 100 complete control
Outline: as §1

Sunflower [16] = conditions: Rate 250 g/ha, scale 0 to 100, 0 no effect, 100 complete control
[17] = preemergence, Rate 500 g/ha, visual evaluation after 12 to 14 days

## CCC(C)c1ccn(C2CCN(c3cccc(OC(C)C)c3)C2=O)n1 (stereo not drawn) [Compound 83]
Nightshade; Rate 62 g/ha
  Plant response rating, Nightshade: 0
Nightshade; Rate 125 g/ha
  Plant response rating, Nightshade: 50
Nightshade; Rate 250 g/ha
  Plant response rating, Nightshade: 60
Sunflower [1]
  Plant response rating, Sunflower: 30
[2]; Rate 62 g/ha
  Plant response rating, Surinam grass: 40
[2]; Rate 125 g/ha
  Plant response rating, Surinam grass: 50
[2]; Rate 250 g/ha
  Plant response rating (0 to 100), Surinam grass: 90
[2]; Rate 500 g/ha
  Plant response rating (0 to 100), Surinam grass: 100
[3]; Rate 62 g/ha
  Plant response rating, Bermudagrass: 100
[3]; Rate 125 g/ha
  Plant response rating, Bermudagrass: 100
[3]; Rate 250 g/ha
  Plant response rating (0 to 100 where 0 is no effect and 100 is complete control), Bermudagrass: 100
[3]; Rate 500 g/ha
  Plant response rating (0 to 100 where 0 is no effect and 100 is complete control), Bermudagrass: 100
[4]; Rate 62 g/ha
  Plant response rating, Cocklebur: 0
[4]; Rate 125 g/ha
  Plant response rating, Cocklebur: 0
[4]; Rate 250 g/ha
  Plant response rating (0 to 100), Cocklebur: 30
[4]; Rate 500 g/ha
  Plant response rating (0 to 100), Cocklebur: 0
[5]; Rate 125 g/ha
  Plant response rating, Ragweed, Common: 0
[5]; [17]
  Plant response rating (0 to 100), Ragweed, Common: 100
[5]; preemergence, Rate 250 g/ha
  Plant response rating, Ragweed, Common: 0
Corn (Zea mays); Rate 62 g/ha
  Plant response rating, Corn: 0
Corn (Zea mays); Rate 125 g/ha
  Plant response rating, Corn: 0
Corn (Zea mays); Rate 250 g/ha
  Plant response rating (0 to 100), Corn: 0
Corn (Zea mays); Rate 500 g/ha
  Plant response rating (0 to 100), Corn: 10
[6]; Rate 62 g/ha
  Plant response rating, Crabgrass: 100
[6]; Rate 125 g/ha
  Plant response rating, Crabgrass: 100
[6]; Rate 250 g/ha
  Plant response rating (0 to 100), Crabgrass: 100
[6]; Rate 500 g/ha
  Plant response rating (0 to 100), Crabgrass: 100
[7]; Rate 62 g/ha
  Plant response rating, Foxtail, Giant: 0
[7]; Rate 125 g/ha
  Plant response rating, Foxtail, Giant: 100
[7]; Rate 250 g/ha
  Plant response rating (0 to 100), Foxtail, Giant: 60
[7]; Rate 500 g/ha
  Plant response rating (0 to 100), Foxtail, Giant: 0
[8]; Rate 62 g/ha
  Plant response rating, Goosegrass: 100
[8]; Rate 125 g/ha
  Plant response rating, Goosegrass: 100
[8]; Rate 250 g/ha
  Plant response rating (0 to 100), Goosegrass: 100
[8]; Rate 500 g/ha
  Plant response rating (0 to 100), Goosegrass: 100
[9]; Rate 62 g/ha
  Plant response rating, Johnsongrass: 20
[9]; Rate 125 g/ha
  Plant response rating, Johnsongrass: 30
[9]; Rate 250 g/ha
  Plant response rating (0 to 100), Johnsongrass: 30
[9]; Rate 500 g/ha
  Plant response rating (0 to 100), Johnsongrass: 30
Kochia (Kochia scoparia); Rate 62 g/ha
  Plant response rating, Kochia: 60
Kochia (Kochia scoparia); Rate 125 g/ha
  Plant response rating, Kochia: 90
Kochia (Kochia scoparia); Rate 250 g/ha
  Plant response rating (0 to 100), Kochia: 90
Kochia (Kochia scoparia); Rate 500 g/ha
  Plant response rating (0 to 100), Kochia: 100
[10]; Rate 62 g/ha
  Plant response rating, Lambsquarters: 100
[10]; Rate 125 g/ha
  Plant response rating, Lambsquarters: 100
[10]; [17]
  Plant response rating (0 to 100), Lambsquarters: 100
[10]; preemergence, Rate 250 g/ha
  Plant response rating, Lambsquarters: 100
[11]; Rate 62 g/ha
  Plant response rating, Morningglory: 0
[11]; Rate 125 g/ha
  Plant response rating, Morningglory: 0
[11]; [17]
  Plant response rating (0 to 100), Morningglory: 0
[11]; preemergence, Rate 250 g/ha
  Plant response rating, Morningglory: 0
[12]; Rate 125 g/ha
  Plant response rating, Pigweed: 50
[12]; [17]
  Plant response rating (0 to 100), Pigweed: 100
[12]; preemergence, Rate 250 g/ha
  Plant response rating, Pigweed: 100
Soybean (Glycine max); Rate 125 g/ha
  Plant response rating, Soybean: 0
Soybean (Glycine max); [17]
  Plant response rating (0 to 100), Soybean: 10
Soybean (Glycine max); preemergence, Rate 250 g/ha
  Plant response rating, Soybean: 0
[13]; Rate 125 g/ha
  Plant response rating, Velvetleaf: 30
[13]; [17]
  Plant response rating (0 to 100), Velvetleaf: 40
[13]; preemergence, Rate 250 g/ha
  Plant response rating, Velvetleaf: 0
[14]; Rate 62 g/ha
  Plant response rating, Cupgrass, Woolly: 80
[14]; Rate 125 g/ha
  Plant response rating, Cupgrass, Woolly: 90
[14]; Rate 250 g/ha
  Plant response rating (0 to 100), Cupgrass, Woolly: 100
[14]; Rate 500 g/ha
  Plant response rating (0 to 100), Cupgrass, Woolly: 100
[15]; Rate 62 g/ha
  Plant response rating, Nutsedge: 0
[15]; Rate 125 g/ha
  Plant response rating, Nutsedge: 0
[15]; [17]
  Plant response rating (0 to 100), Nutsedge: 0
[15]; preemergence, Rate 250 g/ha
  Plant response rating, Nutsedge: 0
Sunflower [16]
  Plant response rating, Sunflower: 0
